From PubChem BioAssay AID2060621 (Molecular Pharmacology Branch, DTP, NCI, 2025)
“And” between values parts separate entries of the source, which are not always exact repeats. Equal values may be shown once.

Test system: 324938-238-R-J1-PDC complex spheroids viability
Experiment: Anticancer human tumor 324938-238-R-J1-PDC patient-derived bladder carcinoma cell line growth inhibition [CLK]
Conditions: for viability, T/C: stronger effect = lower value; active = viability on the fitted dose curve at most 10% of control; inactive = the rest
Procedure, shortened: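 Multi-cell-type spheroids combined patient-derived tumor cells with HUVEC endothelial cells and human mesenchymal stem cells. Paired agents were dosed in half-log steps down from about clinical Cmax, or from 10 microM where Cmax was unknown.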
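Also: viability read after seven days of drug exposure.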
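For viability, T/C in this document: 100% = DMSO vehicle control wells.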

NC(=O)C(=Cn1cnc(-c2cc(C(F)(F)F)cc(C(F)(F)F)c2)n1)c1cncnc1
45.5 nM and 43.6 nM: IC50 (curve of compound)
active: viability, T/C (compound 0.949 µM) 5.43% and 5.85% | viability, T/C (compound 3 µM) 3.14% and 2.78%
inactive: viability, T/C (compound 0.00949 µM) 70.3% and 65.1% | viability, T/C (compound 0.03 µM) 56.4% and 61.5% | viability, T/C (compound 0.0949 µM) 37.4% and 29.3% | viability, T/C (compound 0.3 µM) 12.4% and 14%

CC(C)CC(NC(=O)C(Cc1ccccc1)NC(=O)c1cnccn1)B(O)O (stereo unspecified)
inactive: viability, T/C (compound 0.000949 µM) 63.7% and 55.5%
active: viability, T/C (compound 0.003 µM) 2.77% and 1.54% | viability, T/C (compound 0.00949 µM) 0.22% and 0.18% | viability, T/C (compound 0.03 µM) 0.44% and 0.2% | viability, T/C (compound 0.0949 µM) 0.18% and 0.12% | viability, T/C (compound 0.3 µM) 0.35% and 0.13%
1.23 nM and 1.07 nM: IC50 (curve of compound)

O=c1[nH]cc(F)c(=O)[nH]1 + CNC(=O)c1ccc(Nc2nc(OC3CCCC3)c3c(-c4ccc5nc(C)oc5c4)c[nH]c3n2)c(OC)c1
256 nM: IC50 (curve of first compound, second compound 0.0316 µM)
< 31.6 nM: IC50 (curve of first compound, second compound 0.1 µM) | IC50 (curve of first compound, second compound 0.316 µM) | IC50 (curve of first compound, second compound 1 µM) | IC50 (curve of first compound, second compound 3.16 µM) | IC50 (curve of first compound, second compound 10 µM)
inactive: viability, T/C (second compound 0.0316 µM, first compound 0.0316 µM) 80.6% | viability, T/C (second compound 0.0316 µM, first compound 0.1 µM) 77.5% | viability, T/C (second compound 0.0316 µM, first compound 0.316 µM) 43.5% | viability, T/C (second compound 0.0316 µM, first compound 1 µM) 28.6% | viability, T/C (second compound 0.0316 µM, first compound 3.16 µM) 22.2% | viability, T/C (second compound 0.0316 µM, first compound 10 µM) 25.1% | viability, T/C (second compound 0.1 µM, first compound 0.0316 µM) 25.2% | viability, T/C (second compound 0.1 µM, first compound 0.1 µM) 24% | viability, T/C (second compound 0.1 µM, first compound 0.316 µM) 23.8% | viability, T/C (second compound 0.1 µM, first compound 1 µM) 19.8% | viability, T/C (second compound 0.1 µM, first compound 3.16 µM) 15.7% | viability, T/C (second compound 0.1 µM, first compound 10 µM) 17.5% | viability, T/C (second compound 0.316 µM, first compound 0.0316 µM) 19.6% | viability, T/C (second compound 0.316 µM, first compound 0.1 µM) 18.5% | viability, T/C (second compound 0.316 µM, first compound 0.316 µM) 16.2% | viability, T/C (second compound 0.316 µM, first compound 1 µM) 14.7% | viability, T/C (second compound 0.316 µM, first compound 3.16 µM) 14.3% | viability, T/C (second compound 0.316 µM, first compound 10 µM) 14.7% | viability, T/C (second compound 1 µM, first compound 0.0316 µM) 16.1% | viability, T/C (second compound 1 µM, first compound 0.1 µM) 15.2% | viability, T/C (second compound 1 µM, first compound 0.316 µM) 15.4% | viability, T/C (second compound 1 µM, first compound 1 µM) 13.8% | viability, T/C (second compound 1 µM, first compound 3.16 µM) 10.5% | viability, T/C (second compound 1 µM, first compound 10 µM) 9.31% | viability, T/C (second compound 3.16 µM, first compound 0.0316 µM) 15.3% | viability, T/C (second compound 3.16 µM, first compound 0.1 µM) 14.8% | viability, T/C (second compound 3.16 µM, first compound 0.316 µM) 14% | viability, T/C (second compound 3.16 µM, first compound 1 µM) 12.7% | viability, T/C (second compound 3.16 µM, first compound 3.16 µM) 11.2% | viability, T/C (second compound 3.16 µM, first compound 10 µM) 11.1% | viability, T/C (second compound 10 µM, first compound 0.0316 µM) 17.8% | viability, T/C (second compound 10 µM, first compound 0.1 µM) 15.3% | viability, T/C (second compound 10 µM, first compound 0.316 µM) 15.1% | viability, T/C (second compound 10 µM, first compound 1 µM) 16.6% | viability, T/C (second compound 10 µM, first compound 3.16 µM) 12.6% | viability, T/C (second compound 10 µM, first compound 10 µM) 10.3%
